Data: ChEMBL document CHEMBL1201862, “PubChem BioAssay data set” (2004)
One block for each compound: values may come before it. Activity calls are given as the source filed them.

Tests used:
[1] = miR-122 activators in hepatoma reporter cells, dose response, cell-based, Huh7 psiCHECK-miR122, Renilla luciferase, cherry-picked (AID 651956); type: functional;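 also: huh7 hepatoma cells stably carrying a psiCHECK-2 miR-122 sensor plasmid; renilla luciferase signal reporting endogenous miR-122 activity after 48 h compound exposure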
[2] = HEK293T cytotoxicity, dose response, cytotoxicity control for miR-122 modulator project, cell-based, inhibitor set, cherry-pick, set 2 (AID 720697); type: functional
Large T antigen = Large T antigen (Simian virus 40, UniProt P03070); type: functional, Betapolyomavirus macacae;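 also: Confirmatory-stage PubChem screen for compounds that inhibit SV40 T antigen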
Leucine aminopeptidase = target: T1, Leucine aminopeptidase (Plasmodium falciparum 3D7, UniProt Q8IL11); assay: P. falciparum M17LAP inhibitors, primary screen, biochemical, fluorogenic H-Leu-NHMec substrate, 1536-well (AID 1619); type: functional
T1 sequence (Q8IL11 whole entry): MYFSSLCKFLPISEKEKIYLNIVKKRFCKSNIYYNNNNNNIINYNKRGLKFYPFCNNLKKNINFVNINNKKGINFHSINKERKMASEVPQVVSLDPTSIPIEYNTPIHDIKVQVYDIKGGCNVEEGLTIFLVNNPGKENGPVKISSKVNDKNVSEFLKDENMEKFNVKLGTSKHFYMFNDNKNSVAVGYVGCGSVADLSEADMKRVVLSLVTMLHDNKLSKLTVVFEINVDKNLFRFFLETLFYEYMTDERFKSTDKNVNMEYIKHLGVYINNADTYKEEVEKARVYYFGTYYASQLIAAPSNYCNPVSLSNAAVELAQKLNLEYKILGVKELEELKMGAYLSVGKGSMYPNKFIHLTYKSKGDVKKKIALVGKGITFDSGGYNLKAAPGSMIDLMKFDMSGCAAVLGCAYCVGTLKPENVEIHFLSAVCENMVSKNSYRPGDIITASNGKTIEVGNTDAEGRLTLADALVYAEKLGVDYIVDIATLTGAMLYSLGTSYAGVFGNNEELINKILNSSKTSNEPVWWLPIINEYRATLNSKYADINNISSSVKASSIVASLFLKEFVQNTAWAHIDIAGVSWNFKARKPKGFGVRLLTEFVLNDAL

[3] = StAR promoter reporter inhibition counter-screen, dose response, counter-screen for LRH-1 inverse agonist project, cell-based, luminescence, luciferase reporter (AID 651969); type: functional
[4] = target: Nuclear receptor subfamily 5 group A member 2 (Homo sapiens, UniProt O00482); type: functional, cell-based;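 also: HEK293T cells transfected with LRH-1 and a StAR promoter luciferase reporter; potency for inhibitors that lower LRH-1 driven reporter light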
Steroidogenic factor 1 = Steroidogenic factor 1 (Homo sapiens, UniProt Q13285); assay: Counterscreen for inverse agonists of the liver receptor homolog-1 (LRH-1; NR5A2): Luminescence-based cell-based high throughput dose response assay to identify inverse agonists of the Steroidogenic Factor 1 Nuclear Receptor (SF1; NR5A1).; type: functional
[5] = control 3'UTR Renilla luciferase suppression, dose response, counter-screen for Shn3 inhibitor project, cell-based, Clone20-Shn3RL, cherry-picked (AID 624133); type: functional
[6] = Shn3 3'UTR reporter inhibitors, dose response, cell-based, Clone20 osteoblasts, firefly luciferase, cherry-picked (AID 624132); type: functional;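 also: firefly luciferase luminescence from reporter carrying the Shn3 3'UTR in osteoblasts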
Beta Lactamase = Beta Lactamase (Pseudomonas aeruginosa, UniProt Q932Y6); assay: beta-lactamase reporter inhibitor potency, dose response, artefact control for TLR9-MyD88 binding inhibitor project, BLA reporter cells, FRET fluorescence (AID 588341); type: cell-based;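 also: cell based assay in CHO-K1 cells stably expressing beta-lactamase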
[7] = target: T2, High affinity choline transporter 1 (Homo sapiens, UniProt Q9GZV3); assay: CHT inhibitors, dose response, cell-based, 5-point CRC, membrane potential dye (AID 504840); type: functional
T2 sequence (Q9GZV3 whole entry): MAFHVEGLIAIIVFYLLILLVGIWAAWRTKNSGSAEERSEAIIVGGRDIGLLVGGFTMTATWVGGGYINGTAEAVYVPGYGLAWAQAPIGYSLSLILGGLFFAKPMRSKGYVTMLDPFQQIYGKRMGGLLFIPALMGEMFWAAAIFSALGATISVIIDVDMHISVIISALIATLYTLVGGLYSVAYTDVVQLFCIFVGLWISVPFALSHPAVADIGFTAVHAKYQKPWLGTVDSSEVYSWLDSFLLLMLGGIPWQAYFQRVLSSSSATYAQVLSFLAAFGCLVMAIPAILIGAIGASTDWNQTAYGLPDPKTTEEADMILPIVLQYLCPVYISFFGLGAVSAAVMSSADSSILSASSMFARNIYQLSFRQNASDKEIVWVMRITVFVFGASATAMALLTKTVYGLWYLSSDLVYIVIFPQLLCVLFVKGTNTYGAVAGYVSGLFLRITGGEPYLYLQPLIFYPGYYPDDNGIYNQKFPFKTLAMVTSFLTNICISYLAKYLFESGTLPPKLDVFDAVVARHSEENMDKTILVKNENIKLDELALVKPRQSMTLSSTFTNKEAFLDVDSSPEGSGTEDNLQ

CHO = assay: cytotoxicity in TLR9-MyD88 CHO cells, dose response, cytotoxicity control for TLR9-MyD88 binding inhibitor project, cell-based, luminescence (AID 588339); type: functional, hamster; settings: Cricetulus griseus;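 also: CHO cells stably coexpressing TLR9 and MyD88 fusions from primary screen; compound exposure lasted 48 hours before viability readout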
[8] = target: T2, High affinity choline transporter 1; assay: CHT inhibitors, dose response, cell-based, 10-point CRC, membrane potential dye (AID 588401); type: functional;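 also: membrane potential dye fluorescence of choline-evoked depolarization via CHT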
[9] = HepG2 cell cytotoxicity, dose response, cytotoxicity control for Shn3 inhibitor project, CellTiter-Glo, cherry-picked (AID 624134); type: functional, cell-based
[10] = target: ADP-ribosylation factor GTPase-activating protein 1 (Rattus norvegicus, UniProt Q62848); assay: Fluorescence polarization-based biochemical high throughput dose response screening assay to identify inhibitors of ADP-ribosylation factor GTPase activating protein 1 (ARFGAP1).; type: functional
Sequence of ADP-ribosylation factor GTPase-activating protein 1 (Q62848 whole entry): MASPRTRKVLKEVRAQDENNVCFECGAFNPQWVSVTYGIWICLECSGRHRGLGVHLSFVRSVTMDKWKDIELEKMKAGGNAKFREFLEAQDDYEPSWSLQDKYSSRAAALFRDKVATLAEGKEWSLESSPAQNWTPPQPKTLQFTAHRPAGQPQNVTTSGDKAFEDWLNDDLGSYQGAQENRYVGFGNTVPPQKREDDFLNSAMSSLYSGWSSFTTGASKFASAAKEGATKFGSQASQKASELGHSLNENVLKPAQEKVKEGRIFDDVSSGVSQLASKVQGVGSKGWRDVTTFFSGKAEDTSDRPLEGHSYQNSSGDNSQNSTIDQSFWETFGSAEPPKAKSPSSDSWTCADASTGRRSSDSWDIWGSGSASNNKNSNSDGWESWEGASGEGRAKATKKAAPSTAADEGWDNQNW

Sequence of Large T antigen (P03070 whole entry): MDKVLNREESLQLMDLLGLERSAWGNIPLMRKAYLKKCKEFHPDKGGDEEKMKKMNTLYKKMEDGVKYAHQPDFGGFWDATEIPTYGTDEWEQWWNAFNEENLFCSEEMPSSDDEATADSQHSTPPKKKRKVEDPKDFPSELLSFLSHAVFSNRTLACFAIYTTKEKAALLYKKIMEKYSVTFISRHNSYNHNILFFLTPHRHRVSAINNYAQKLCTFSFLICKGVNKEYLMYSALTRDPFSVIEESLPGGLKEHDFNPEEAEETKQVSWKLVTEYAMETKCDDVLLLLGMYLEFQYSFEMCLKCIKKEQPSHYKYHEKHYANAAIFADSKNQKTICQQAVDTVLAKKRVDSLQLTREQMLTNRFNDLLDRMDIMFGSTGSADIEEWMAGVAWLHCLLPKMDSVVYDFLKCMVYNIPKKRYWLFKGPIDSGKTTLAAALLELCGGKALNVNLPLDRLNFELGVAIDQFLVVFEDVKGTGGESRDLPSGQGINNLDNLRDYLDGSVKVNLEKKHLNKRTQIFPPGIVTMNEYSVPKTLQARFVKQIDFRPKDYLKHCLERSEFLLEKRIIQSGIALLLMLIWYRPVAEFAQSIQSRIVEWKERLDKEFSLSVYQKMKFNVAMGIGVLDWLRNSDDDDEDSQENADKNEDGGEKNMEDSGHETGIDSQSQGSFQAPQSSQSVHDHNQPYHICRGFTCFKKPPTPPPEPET
Sequence of Beta Lactamase (Q932Y6 whole entry): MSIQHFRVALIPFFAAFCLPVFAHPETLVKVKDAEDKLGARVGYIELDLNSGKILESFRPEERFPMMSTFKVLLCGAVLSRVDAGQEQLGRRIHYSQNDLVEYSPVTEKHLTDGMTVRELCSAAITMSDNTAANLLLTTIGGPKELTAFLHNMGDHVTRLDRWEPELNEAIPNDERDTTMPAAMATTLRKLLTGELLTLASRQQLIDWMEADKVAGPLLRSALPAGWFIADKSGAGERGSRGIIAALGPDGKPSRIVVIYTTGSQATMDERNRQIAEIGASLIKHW
Sequence of Nuclear receptor subfamily 5 group A member 2 (O00482 whole entry): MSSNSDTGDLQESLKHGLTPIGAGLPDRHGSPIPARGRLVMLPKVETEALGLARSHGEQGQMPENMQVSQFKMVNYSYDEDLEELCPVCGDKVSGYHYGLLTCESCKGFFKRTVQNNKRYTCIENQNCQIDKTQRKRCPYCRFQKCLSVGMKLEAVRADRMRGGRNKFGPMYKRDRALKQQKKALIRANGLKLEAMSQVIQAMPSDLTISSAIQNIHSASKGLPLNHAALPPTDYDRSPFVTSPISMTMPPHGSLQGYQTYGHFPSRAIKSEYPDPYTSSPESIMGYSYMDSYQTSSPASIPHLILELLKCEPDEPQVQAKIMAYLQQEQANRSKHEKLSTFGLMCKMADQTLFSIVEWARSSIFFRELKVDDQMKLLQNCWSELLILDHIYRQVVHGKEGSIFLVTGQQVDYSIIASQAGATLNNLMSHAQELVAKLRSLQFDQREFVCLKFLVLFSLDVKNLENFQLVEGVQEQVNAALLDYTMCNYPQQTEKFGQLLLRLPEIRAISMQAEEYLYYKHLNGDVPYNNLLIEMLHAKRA
Sequence of Steroidogenic factor 1 (Q13285 whole entry): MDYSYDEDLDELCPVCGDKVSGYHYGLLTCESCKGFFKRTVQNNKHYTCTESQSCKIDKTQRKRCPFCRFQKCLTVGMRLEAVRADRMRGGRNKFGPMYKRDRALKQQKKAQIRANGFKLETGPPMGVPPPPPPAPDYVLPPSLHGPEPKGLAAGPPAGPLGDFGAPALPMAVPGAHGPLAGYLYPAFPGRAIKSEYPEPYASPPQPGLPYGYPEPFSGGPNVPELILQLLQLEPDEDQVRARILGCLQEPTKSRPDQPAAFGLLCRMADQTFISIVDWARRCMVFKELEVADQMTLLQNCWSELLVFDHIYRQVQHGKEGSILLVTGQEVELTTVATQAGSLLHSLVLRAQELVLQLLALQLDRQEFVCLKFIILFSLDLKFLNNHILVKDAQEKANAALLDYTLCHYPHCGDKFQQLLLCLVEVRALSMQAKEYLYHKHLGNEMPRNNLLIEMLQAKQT

SMILES: Cc1cccc(C)c1NC(=O)CSCC(=O)c1ccc(O)c(O)c1
AC50 [1]: 15 µM (active)
AC50 [2]: 2.43 µM (active)
IC50 (Large T antigen): 12.8 µM (active)
IC50 (Leucine aminopeptidase): 20.9 µM (active)

SMILES: CCCc1cc(=O)oc2c(C)c(OCC(=O)NCCCn3ccnc3)ccc12
IC50 [3]: 35.9 µM (inactive)
IC50 [4]: 35.9 µM (inactive)
IC50 (Steroidogenic factor 1): 10.8 µM (inactive)

SMILES: O=c1oc2ccccc2c(Cl)c1CN1CCCCC1
AC50 [5]: 7.15 µM (active)
AC50 [6]: 4.99 µM (active)
IC50 (Beta Lactamase): 6.02 µM (active)
IC50 [7]: 10 µM (active)
IC50 (CHO): 1.22 µM (active)
IC50 [8]: 6.69 µM (active)
AC50 [9]: > 70 µM (inactive)

IC50 [10]: 49 µM (inactive)
SMILES: CCCOc1ccc(/C=N/NC(=O)c2ccc(Cn3cc([N+](=O)[O-])cn3)o2)cc1
